Laboratory results: patent publication US20230399623A1, “ARTIFICAL LIVER ORGANOIDS AND METHODS OF THEIR PRODUCTION” (Oslo Universitetssykehus HF, priority 2020, published 2023)

Tests used:
organoids [1] = experiment: Oleic acid accumulation assay (BODIPY lipid staining); type: cell-based, human; conditions: 300 μM, 5 days
Experimental: 1 M Oleic acid (Sigma Aldrich) was diluted with NaOH (Sigma Aldrich) and heated at 70° C. for 30 minutes to form a 20 mM Sodium Oleate solution. This was then diluted with a 5% BSA/PBS solution at 37° C. to form a 5 mM Sodium Oleate/BSA complex. This was further diluted to 300 μM in culture media and incubated with organoids for 5 days, changing the media each day. After the fatty acid treatment, the organoids were then incubated with 3.8 μM BODIPY 493/503 (Life Technologies) for 30 minutes in culture media at 37° C., then washed two times with PBS before replacing with fresh culture media containing DRAQ5 (Thermofisher) at 1:1500. Organoids were then imaged on a confocal as described above.

organoids [2] = experiment: Heroin metabolism in liver organoids (UPLC-MS/MS); type: in vitro ADME, human; conditions: 10 μM heroin
Experimental: After 21 days differentiation, 50 organoids per well were loaded in triplicate into a 96-well plate and treated with culture media supplemented with 10 μM heroin for 1, 3, 6, and 24 hours. For controls, we used culture media without organoids; these were performed in parallel to measure heroin degradation throughout the experiment. To stop metabolism at each time point the samples were transferred to a new 96-well plate prefilled with formic acid (final conc. 0.1 M) along with internal standards. The samples were centrifuged for 10 minutes at 1000×g at 4° C. The supernatants were transferred to auto-sampler vials and analysed for heroin, morphine, and M3G using an Acquity UPLC system (Waters, Milford, MA) coupled to a Xevo-TQS triple quadrupole mass spectrometer with an electrospray ionization interface (Waters) based on a method previously described 62. Data acquisition, peak integration, and quantification of samples were performed using MassLynx 4.0 SCN509 software (Waters Corp., Milford, MA, USA).
The field of non-CYP450-mediated metabolism has attracted increasing attention as an important player in absorption, distribution, metabolism, and excretion^44. […] We tested if organoids supported heroin metabolism by exposure to 10 μM heroin and quantification by UPLC-MS/MS. […]

[3] = system: human liver microsomes and a human S9 fraction; experiment: Heroin metabolism in control liver fractions; type: in vitro ADME; conditions: controls: human liver microsomes and human S9 fraction
Excerpt: The field of non-CYP450-mediated metabolism has attracted increasing attention as an important player in absorption, distribution, metabolism, and excretion^44. We investigated liver carboxyl esterases (CES), which are hydrolytic enzymes involved in the metabolism of endogenous esters, ester-containing drugs, pro-drugs and environmental toxicants^45. The CES enzymes also metabolize a wide range of xenobiotic substrates including heroin, which is metabolized by sequential deacetylation (phase I reaction) to 6-monoacetylmorphine (6-MAM) and morphine. Morphine is then glucuronidated, by a phase II reaction via UDP-glucuronosyltransferase (UGT) to morphine-3-glucuronide (M3G). We tested if organoids supported heroin metabolism by exposure to 10 μM heroin and quantification by UPLC-MS/MS. We also compared organoid metabolism to human liver microsomes and a human S9 fraction (unfractionated microsomes and cytosol. The kinetics of metabolism was slower in the organoids we observed phase I metabolism of heroin by CES to morphine in approximately 6 hours, while the controls produced morphine in approximately 12 minutes. However, phase II metabolism (UGT) to morphine glucuronides was detectable in the organoids and absent in the controls.

CCCCCCCC/C=C\CCCCCCCC(=O)O [free fatty acid, Oleic acid]
lipid accumulation in organoids (Bodipy) (organoids [1]): massive lipid accumulation

CC(=O)Oc1ccc2c3c1O[C@H]1[C@@H](OC(C)=O)C=C[C@H]4[C@@H](C2)N(C)CC[C@@]341 [heroin]
phase II metabolism (UGT) to morphine glucuronides (organoids [2]): detectable | phase II metabolism (UGT) to morphine glucuronides [3]: absent
